Reference: ChEMBL document CHEMBL1127807 (J Med Chem, 1994)

Assays:
[1] = molecular target: Kappa-type opioid receptor (Cavia porcellus, UniProt P41144); test: Tested for the binding affinity against the Kappa opioid receptor in guinea pig brain using [3H]U-69593
[2] = molecular target: Opioid receptors; mu/kappa/delta (Homo sapiens, UniProt P41145+P41143+P35372); test: Tested for the binding affinity against the opioid receptor in guinea pig brain using [3H]bremazocine; design: species or system Cavia porcellus; conditions: target entry is the homologue from another species
[3] = molecular target: Mu-type opioid receptor (Cavia porcellus, UniProt P97266); test: Tested for the binding affinity against the Mu opioid receptor in guinea pig brain using [3H]-DAMGO
Mu-type opioid receptor, sequence (P97266 whole entry): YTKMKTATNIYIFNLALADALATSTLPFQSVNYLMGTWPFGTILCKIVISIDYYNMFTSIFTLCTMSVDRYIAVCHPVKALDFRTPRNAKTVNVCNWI

Kappa-type opioid receptor, sequence (P41144 whole entry): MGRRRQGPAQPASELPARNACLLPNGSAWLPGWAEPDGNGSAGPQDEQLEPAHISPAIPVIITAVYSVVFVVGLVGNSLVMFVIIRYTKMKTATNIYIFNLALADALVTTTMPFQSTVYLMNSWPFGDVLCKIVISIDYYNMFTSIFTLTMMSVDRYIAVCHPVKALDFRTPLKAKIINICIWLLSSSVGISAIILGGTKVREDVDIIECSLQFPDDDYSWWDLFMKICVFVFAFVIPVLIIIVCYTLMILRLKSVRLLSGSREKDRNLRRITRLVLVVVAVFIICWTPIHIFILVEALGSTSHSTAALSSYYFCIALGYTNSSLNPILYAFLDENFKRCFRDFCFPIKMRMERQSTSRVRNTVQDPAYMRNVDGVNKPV

| SMILES | IC50 [1] [nM] | IC50 [2] [nM] | IC50 [3] [nM] |
| --- | --- | --- | --- |
| Oc1ccc2c3c1OC1[C@@H](OCc4ccc5ccccc5c4)CCC4(O)C(C2)N(CC2CC2)CCC314 (some centres not stated) | 1.4 | 4.7 | 1.2 |
| Oc1ccc2c3c1OC1[C@H](OCc4c5ccccc5cc5ccccc45)CCC4(O)C(C2)N(CC2CC2)CCC314 (some centres not stated) | 27 | 71 | 16 |
| Oc1ccc2c3c1OC1[C@H](OCc4ccc5ccccc5c4)CCC4(O)C(C2)N(CC2CC2)CCC314 (some centres not stated) | 1.5 | 5 | 1.7 |
| Oc1ccc2c3c1OC1[C@@H](OCc4cccc5ccccc45)CCC4(O)C(C2)N(CC2CC2)CCC314 (some centres not stated) | 4.4 | 7.3 | 1 |
| Oc1ccc2c3c1OC1[C@@H](OCc4ccccc4)CCC4(O)C(C2)N(CC2CC2)CCC314 (some centres not stated) | 0.6 | 1.5 | 0.3 |
| O=C(COC1CCC2(O)C3Cc4ccc(O)c5c4C2(CCN3CC2CC2)C1O5)C1[C@H]2C[C@@H]3C[C@@H](C[C@H]1C3)C2 (some centres not stated) | 3.3 | 13 | 6.6 |
| Oc1ccc2c3c1O[C@H]1[C@H](O)CC[C@@]4(O)[C@@H](C2)N(CC2CC2)CC[C@]314 (stereo in doubt; 6) | 2.6 |  | 1.1 |
| Oc1ccc2c3c1OC1[C@@H](OCc4c5ccccc5cc5ccccc45)CCC4(O)C(C2)N(CC2CC2)CCC314 (some centres not stated) | 34 | 45 | 6.6 |
| Oc1ccc2c3c1OC1[C@H](OCc4ccccc4)CCC4(O)C(C2)N(CC2CC2)CCC314 (some centres not stated) | 2 | 3.4 | 2.4 |
| Oc1ccc2c3c1OC1[C@H](OCc4ccc(-c5ccccc5)cc4)CCC4(O)C(C2)N(CC2CC2)CCC314 (some centres not stated) | 1.5 | 3.3 | 0.7 |
| Oc1ccc2c3c1OC1[C@H](OCc4cccc5ccccc45)CCC4(O)C(C2)N(CC2CC2)CCC314 (some centres not stated) | 6.1 | 11 | 3.1 |
| Oc1ccc2c3c1OC1[C@@H](OCc4ccc(-c5ccccc5)cc4)CCC4(O)C(C2)N(CC2CC2)CCC314 (some centres not stated) | 12 | 28 | 10 |
| Oc1ccc2c3c1O[C@H]1[C@H](O)CC[C@@]4(O)[C@@H](C2)N(CC2CC2)CC[C@]314 (stereo in doubt; 7) | 1.8 |  | 0.5 |
